# Laboratory results from patent US11078197B2, “5-membered and bicyclic heterocyclic amides as inhibitors of rock” (BRISTOL-MYERS SQUIBB COMPANY, priority 2017, dated 2021).
# Biological target: ROCK2 (Homo sapiens (Human), UniProt O75116)
# Experiment: ROCK2 assay (peptide phosphorylation, LABCHIP 3000 Reader)
# Type: biochemical
# Conditions: 5 μM ATP, 1.5 μM peptide substrate, dose-response
# Procedure: After incubation, the reaction was terminated by the addition of EDTA and the phosphorylated and non-phosphorylated peptides separated using a LABCHIP®3000 Reader (Caliper Life Sciences). […] Compounds were tested in dose-response format, and the inhibition of kinase activity was calculated at each concentration of compound. […] Representative Examples were tested in the ROCK2 assay described above and found having ROCK2 inhibitory activity.
# Chain of ROCK2 (O75116 whole entry, species assumed): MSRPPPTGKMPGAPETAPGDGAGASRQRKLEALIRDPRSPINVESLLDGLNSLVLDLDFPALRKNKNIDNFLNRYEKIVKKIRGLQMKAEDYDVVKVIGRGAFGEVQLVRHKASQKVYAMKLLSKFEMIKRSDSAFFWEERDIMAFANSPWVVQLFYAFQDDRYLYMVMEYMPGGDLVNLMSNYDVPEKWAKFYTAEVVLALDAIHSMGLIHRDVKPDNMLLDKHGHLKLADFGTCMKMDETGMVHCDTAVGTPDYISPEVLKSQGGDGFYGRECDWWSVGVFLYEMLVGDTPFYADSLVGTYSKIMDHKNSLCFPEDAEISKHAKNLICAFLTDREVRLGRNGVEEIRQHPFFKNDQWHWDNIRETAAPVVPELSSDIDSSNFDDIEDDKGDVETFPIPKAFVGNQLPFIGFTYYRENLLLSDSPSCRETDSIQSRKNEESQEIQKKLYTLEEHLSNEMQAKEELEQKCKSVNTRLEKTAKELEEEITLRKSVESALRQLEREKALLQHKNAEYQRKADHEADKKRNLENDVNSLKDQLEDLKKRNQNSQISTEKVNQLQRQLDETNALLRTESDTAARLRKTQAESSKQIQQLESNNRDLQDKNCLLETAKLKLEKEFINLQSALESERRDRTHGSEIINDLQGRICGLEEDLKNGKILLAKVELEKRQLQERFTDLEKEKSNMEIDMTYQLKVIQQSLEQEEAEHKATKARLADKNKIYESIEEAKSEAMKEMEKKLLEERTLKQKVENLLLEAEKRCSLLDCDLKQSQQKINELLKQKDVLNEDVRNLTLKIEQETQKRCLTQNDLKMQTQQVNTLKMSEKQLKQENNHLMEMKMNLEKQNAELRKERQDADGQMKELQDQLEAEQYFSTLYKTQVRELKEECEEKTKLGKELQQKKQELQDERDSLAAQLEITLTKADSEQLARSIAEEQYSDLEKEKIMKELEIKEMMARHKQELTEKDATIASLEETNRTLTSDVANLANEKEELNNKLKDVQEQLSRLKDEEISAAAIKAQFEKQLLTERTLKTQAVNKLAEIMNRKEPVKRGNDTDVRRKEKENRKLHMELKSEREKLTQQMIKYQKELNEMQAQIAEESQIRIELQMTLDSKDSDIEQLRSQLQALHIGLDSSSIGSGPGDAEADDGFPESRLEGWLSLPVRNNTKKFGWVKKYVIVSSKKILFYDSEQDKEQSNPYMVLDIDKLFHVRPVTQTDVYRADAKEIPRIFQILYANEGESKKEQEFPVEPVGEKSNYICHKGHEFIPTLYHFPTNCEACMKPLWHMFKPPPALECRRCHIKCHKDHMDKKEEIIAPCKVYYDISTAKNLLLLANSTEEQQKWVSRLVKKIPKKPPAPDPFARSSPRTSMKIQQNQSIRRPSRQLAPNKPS
row,SMILES,IC50 [nM]
1,"Cc1c(C(=O)N[C@H]2C[C@]3(C2)C[C@H](Oc2nn4cc(F)ccc4c2C(N)=O)C3)cnn1-c1ccc(C#N)cc1 (stereo partly drawn) [Example 129, 1-(4-cyanophenyl)-5-methyl-N-[(4s)-6-({3-carbamoyl-6-fluoropyrazolo[1,5-a]pyridin-2-yl}oxy)spiro[3.3]heptan-2-yl]-1H-pyrazole-4-carboxamide]",702
2,"CC(C)(O)COc1ccc2c(C(=O)N[C@H]3C[C@]4(C3)C[C@H](Oc3nn5cc(C(F)(F)F)ccc5c3C(N)=O)C4)nn(C(F)F)c2c1 (stereo partly drawn) [Example 130, 1-(difluoromethyl)-6-(2-hydroxy-2-methylpropoxy)-N-[(4s)-6-{[3-carbamoyl-6-(trifluoromethyl)pyrazolo[1,5-a]pyridin-2-yl]oxy}spiro[3.3]heptan-2-yl]-1H-indazole-3-carboxamide]",611
3,"NC(=O)c1c(O[C@H]2C[C@@]3(C[C@H](NC(=O)c4cnn5cc(OCC(F)F)ccc45)C3)C2)nn2cc(C(F)(F)F)ccc12 (stereo partly drawn) [Example 131, 2-{[(4s)-6-[6-(2,2-difluoroethoxy)pyrazolo[1,5-a]pyridine-3-amido]spiro[3.3]heptan-2-yl]oxy}-6-(trifluoromethyl)pyrazolo[1,5-a]pyridine-3-carboxamide]",1170
4,"Cc1ccn2nc(O[C@H]3C[C@@]4(C[C@H](NC(=O)c5nn(C(F)F)c6cc(OCC(C)(C)O)ccc56)C4)C3)c(C(N)=O)c2c1 (stereo partly drawn) [Example 132, 1-(difluroomethyl)-6-(2-hydroxy-2-methylpropoxy)-N-[(4s)-6-({3-carbamoyl-5-methylpyrazolo[1,5-a]pyridin-2-yl}oxy)spiro[3.3]heptan-2-yl]-1H-indazole-3-carboxamide]",223
5,"Cc1cccc2c(C(N)=O)c(O[C@H]3C[C@@]4(C[C@H](NC(=O)c5nn(C(F)F)c6cc(OCC(C)(C)O)ccc56)C4)C3)nn12 (stereo partly drawn) [Example 133, 1-(difluoromethyl)-6-(2-hydroxy-2-methylpropoxy)-N-[(4s)-6-({3-carbamoyl-7-methylpyrazolo[1,5-a]pyridin-2-yl}oxy)spiro[3.3]heptan-2-yl]-1H-indazole-3-carboxamide]",20.2
6,"CC(C)(O)COc1ccc2c(C(=O)N[C@H]3C[C@]4(C3)C[C@H](Oc3nn5c(-c6ccccc6)cccc5c3C(N)=O)C4)nn(C(F)F)c2c1 (stereo partly drawn) [Example 134, 1-(difluoromethyl)-6-(2-hydroxy-2-methylpropoxy)-N-[(4s)-6-({3-carbamoyl-7-phenylpyrazolo[1,5-a]pyridin-2-yl}oxy)spiro[3.3]heptan-2-yl]-1H-indazole-3-carboxamide]",143
7,"CC(C)(O)COc1ccc2c(C(=O)N[C@H]3C[C@]4(C3)C[C@H](Oc3nn5cc(-c6ccc(F)nc6)ccc5c3C(N)=O)C4)nn(C(F)F)c2c1 (stereo partly drawn) [Example 135, 1-(difluoromethyl)-6-(2-hydroxy-2-methylpropoxy)-N-[(4s)-6-{[3-carbamoyl-6-(6-fluoropyridin-3-yl)pyrazolo[1,5-a]pyridin-2-yl]oxy}spiro[3.3]heptan-2-yl]-1H-indazole-3-carboxamide]",390
8,"CC(C)(O)COc1ccc2c(C(=O)N[C@H]3C[C@]4(C3)C[C@H](Oc3nn5ccc(-c6ccc(F)nc6)cc5c3C(N)=O)C4)nn(C(F)F)c2c1 (stereo partly drawn) [Example 136, 1-(difluoromethyl)-6-(2-hydroxy-2-methylpropoxy)-N-[(4s)-6-{[3-carbamoyl-5-(6-fluoropyridin-3-yl)pyrazolo[1,5-a]pyridin-2-yl]oxy}spiro[3.3]heptan-2-yl]-1H-indazole-3-carboxamide]",112
9,"CC(C)(O)COc1ccc2c(C(=O)N[C@H]3C[C@]4(C3)C[C@H](Oc3nn5ccc(-c6ccccc6)cc5c3C(N)=O)C4)nn(C(F)F)c2c1 (stereo partly drawn) [Example 137, 1-(difluoromethyl)-6-(2-hydroxy-2-methylpropoxy)-N-[(4s)-6-({3-carbamoyl-5-phenylpyrazolo[1,5-a]pyridin-2-yl}oxy)spiro[3.3]heptan-2-yl]-1H-indazole-3-carboxamide]",150
10,"COc1cccc2c(C(N)=O)c(O[C@H]3C[C@@]4(C[C@H](NC(=O)c5nn(C(F)F)c6cc(OCC(C)(C)O)ccc56)C4)C3)nn12 (stereo partly drawn) [Example 138, 1-(difluoromethyl)-6-(2-hydroxy-2-methylpropoxy)-N-[(4s)-6-({3-carbamoyl-7-methoxypyrazolo[1,5-a]pyridin-2-yl}oxy)spiro[3.3]heptan-2-yl]-1H-indazole-3-carboxamide]",22
11,"CC(C)CC1NC(=O)N([C@H]2CC3(C[C@H](Oc4nn5ccccc5c4C(N)=O)C3)C2)C1=O (stereo partly drawn) [Example 139, 2-(((2S,4s,6S)-6-(4-isobutyl-2,5-dioxoimidazolidin-1-yl)spiro[3.3]heptan-2-yl)oxy)pyrazolo[1,5-a]pyridine-3-carboxamide]",208
12,"CC(CC1NC(=O)N([C@H]2C[C@@]3(C[C@H](Oc4nn5ccccc5c4C(N)=O)C3)C2)C1=O)C(F)(F)F (stereo partly drawn) [Example 140, 2-{[(4s)-6-[2,5-dioxo-4-(3,3,3-trifluoro-2-methylpropyl)imidazolidin-1-yl]spiro[3.3]heptan-2-yl]oxy}pyrazolo[1,5-a]pyridine-3-carboxamide]",62.1
13,"CC(CC1NC(=O)N([C@H]2C[C@@]3(C[C@H](Oc4nn5ccccc5c4C(N)=O)C3)C2)C1=O)C(F)(F)F (stereo partly drawn) [Example 141, 2-{[(4s)-6-[2,5-dioxo-4-(3,3,3-trifluoro-2-methylpropyl)imidazolidin-1-yl]spiro[3.3]heptan-2-yl]oxy}pyrazolo[1,5-a]pyridine-3-carboxamide]",203
14,"CC(C)CNc1nnc(C(=O)N[C@H]2C[C@]3(C2)C[C@H](Oc2nc4c(cc2C(N)=O)COCC4)C3)s1 (stereo partly drawn) [Example 142, 5-[(2-methylpropyl)amino]-N-[(4s)-6-({3-carbamoyl-5H,7H,8H-pyrano[4,3-b]pyridin-2-yl}oxy)spiro[3.3]heptan-2-yl]-1,3,4-thiadiazole-2-carboxamide]",60.3
15,"NC(=O)c1cc2c(nc1O[C@H]1C[C@@]3(C[C@H](NC(=O)c4cccc(OC(F)(F)F)c4)C3)C1)CCOC2 (stereo partly drawn) [Example 143, 2-{[(4s)-6-[3-(trifluoromethoxy)benzamido]spiro[3.3]heptan-2-yl]oxy}-5H,7H,8H-pyrano[4,3-b]pyridine-3-carboxamide]",109
16,"Cc1nc(NCC(C)(C)O)sc1C(=O)N[C@H]1C[C@]2(C1)C[C@H](Oc1nc3c(cc1C(N)=O)COCC3)C2 (stereo partly drawn) [Example 144, 2-[(2-hydroxy-2-methylpropyl)amino]-4-methyl-N-[(4s)-6-({3-carbamoyl-5H,7H,8H-pyrano[4,3-b]pyridin-2-yl}oxy)spiro[3.3]heptan-2-yl]-1,3-thiazole-5-carboxamide]",367
17,"Cc1nc(NCC(C)C)sc1C(=O)N[C@H]1C[C@]2(C1)C[C@H](Oc1nc3c(cc1C(N)=O)COCC3)C2 (stereo partly drawn) [Example 145, 4-methyl-2-[(2-methylpropyl)amino]-N-[(4s)-6-({3-carbamoyl-5H,7H,8H-pyrano[4,3-b]pyridin-2-yl}oxy)spiro[3.3]heptan-2-yl]-1,3-thiazole-5-carboxamide]",111
18,"Cn1ncc2cc(C(N)=O)c(O[C@H]3C[C@@]4(C[C@H](NC(=O)c5cnn6c(C7CC7)c(OCC(C)(C)O)ccc56)C4)C3)nc21 (stereo partly drawn) [Example 147, 7-cyclopropyl-6-(2-hydroxy-2-methylpropoxy)-N-[(4s)-6-({5-carbamoyl-1-methyl-1H-pyrazolo[3,4-b]pyridin-6-yl}oxy)spiro[3.3]heptan-2-yl]pyrazolo[1,5-a]pyridine-3-carboxamide]",2.9
19,"Cn1ncc2cc(C(N)=O)c(O[C@H]3C[C@@]4(C[C@H](NC(=O)c5cccc(CO)n5)C4)C3)nc21 (stereo partly drawn) [Example 148, 6-(hydroxymethyl)-N-[(4s)-6-({5-carbamoyl-1-methyl-1H-pyrazolo[3,4-b]pyridin-6-yl}oxy)spiro[3.3]heptan-2-yl]pyridine-2-carboxamide]",52.7
20,"Cn1ncc2cc(C(N)=O)c(O[C@H]3C[C@@]4(C[C@H](NC(=O)c5nnc(-c6ccc(C(F)(F)F)cc6)s5)C4)C3)nc21 (stereo partly drawn) [Example 149, N-[(4s)-6-({5-carbamoyl-1-methyl-1H-pyrazolo[3,4-b]pyridin-6-yl}oxy)spiro[3.3]heptan-2-yl]-5-[4-(trifluoromethyl)phenyl]-1,3,4-thiadiazole-2-carboxamide]",14.5
21,"Cc1c(C(=O)N[C@H]2C[C@]3(C2)C[C@H](Oc2nc4c(cnn4C)cc2C(N)=O)C3)cnn1-c1ccc(S(C)(=O)=O)cc1 (stereo partly drawn) [Example 150, 1-(4-methanesulfonylphenyl)-5-methyl-N-[(4s)-6-({5-carbamoyl-1-methyl-1H-pyrazolo[3,4-b]pyridin-6-yl}oxy)spiro[3.3]heptan-2-yl]-1H-pyrazole-4-carboxamide]",7.1
22,"Cn1ncc2cc(C(N)=O)c(O[C@H]3C[C@@]4(C[C@H](NC(=O)c5nnc(-c6ccc(F)cc6F)s5)C4)C3)nc21 (stereo partly drawn) [Example 151, 5-(2,4-difluorophenyl)-N-[(4s)-6-({5-carbamoyl-1-methyl-1H-pyrazolo[3,4-b]pyridin-6-yl}oxy)spiro[3.3]heptan-2-yl]-1,3,4-thiadiazole-2-carboxamide]",13.6
23,"Cc1c(C(=O)N[C@H]2C[C@]3(C2)C[C@H](Oc2nc4c(cnn4C)cc2C(N)=O)C3)cnn1-c1ccc(C#N)cc1 (stereo partly drawn) [Example 152, 1-(4-cyanophenyl)-5-methyl-N-[(4s)-6-({5-carbamoyl-1-methyl-1H-pyrazolo[3,4-b]pyridin-6-yl}oxy)spiro[3.3]heptan-2-yl]-1H-pyrazole-4-carboxamide]",6.3
24,"Cc1c(C(=O)N[C@H]2C[C@]3(C2)C[C@H](Oc2nc4c(cnn4C)cc2C(N)=O)C3)cnn1-c1ccc(-c2cnn(C)c2)cc1 (stereo partly drawn) [Example 153, 5-methyl-1-[4-(1-methyl-1H-pyrazol-4-yl)phenyl]-N-[(4s)-6-({5-carbamoyl-1-methyl-1H-pyrazolo[3,4-b]pyridin-6-yl}oxy)spiro[3.3]heptan-2-yl]-1H-pyrazole-4-carboxamide]",0.8
